Measured values from ChEMBL document CHEMBL4507289, “Data for DCP probe GSM1” (2021).

Key:
[1] = target: SRSF protein kinase 3 (Homo sapiens) (UniProt Q9UPE1); conditions: Compound concentration 1000.0 nM
[2] = target: Activin receptor type-1B (Homo sapiens) (UniProt P36896); conditions: Compound concentration 1000.0 nM
[3] = test system: Tyrosine-protein kinase ABL1 (Homo sapiens), P00519 [F317L]; conditions: Compound concentration 1000.0 nM
[4] = test system: Epidermal growth factor receptor (Homo sapiens), P00533 [UNDEFINED MUTATION]; conditions: Compound concentration 1000.0 nM
[5] = target: MAP kinase-interacting serine/threonine-protein kinase 2 (Homo sapiens) (UniProt Q9HBH9); conditions: Compound concentration 1000.0 nM
[6] = test system: Leucine-rich repeat serine/threonine-protein kinase 2 (Homo sapiens), Q5S007 [G2019S]; conditions: Compound concentration 1000.0 nM
[7] = target: Serine/threonine-protein kinase PLK2 (Homo sapiens) (UniProt Q9NYY3); conditions: Compound concentration 1000.0 nM
[8] = target: Activated CDC42 kinase 1 (Homo sapiens) (UniProt Q07912); conditions: Compound concentration 1000.0 nM
[9] = target: Hepatocyte growth factor receptor (Homo sapiens) (UniProt P08581); conditions: Compound concentration 1000.0 nM
[10] = target: Fibroblast growth factor receptor 1 (Homo sapiens) (UniProt P11362); conditions: Compound concentration 1000.0 nM
[11] = target: Activin receptor type-2B (Homo sapiens) (UniProt Q13705); conditions: Compound concentration 1000.0 nM
[12] = test system: ALK tyrosine kinase receptor (Homo sapiens), Q9UM73 [L1196M]; conditions: Compound concentration 1000.0 nM
[13] = test system: Receptor-type tyrosine-protein kinase FLT3 (Homo sapiens), P36888 [K663Q]; conditions: Compound concentration 1000.0 nM
[14] = target: Serine/threonine-protein kinase MARK2 (Homo sapiens) (UniProt Q7KZI7); conditions: Compound concentration 1000.0 nM
[15] = target: Macrophage colony-stimulating factor 1 receptor (Homo sapiens) (UniProt P07333); conditions: Compound concentration 1000.0 nM
Sequence of Macrophage colony-stimulating factor 1 receptor (Homo sapiens) (P07333 whole entry): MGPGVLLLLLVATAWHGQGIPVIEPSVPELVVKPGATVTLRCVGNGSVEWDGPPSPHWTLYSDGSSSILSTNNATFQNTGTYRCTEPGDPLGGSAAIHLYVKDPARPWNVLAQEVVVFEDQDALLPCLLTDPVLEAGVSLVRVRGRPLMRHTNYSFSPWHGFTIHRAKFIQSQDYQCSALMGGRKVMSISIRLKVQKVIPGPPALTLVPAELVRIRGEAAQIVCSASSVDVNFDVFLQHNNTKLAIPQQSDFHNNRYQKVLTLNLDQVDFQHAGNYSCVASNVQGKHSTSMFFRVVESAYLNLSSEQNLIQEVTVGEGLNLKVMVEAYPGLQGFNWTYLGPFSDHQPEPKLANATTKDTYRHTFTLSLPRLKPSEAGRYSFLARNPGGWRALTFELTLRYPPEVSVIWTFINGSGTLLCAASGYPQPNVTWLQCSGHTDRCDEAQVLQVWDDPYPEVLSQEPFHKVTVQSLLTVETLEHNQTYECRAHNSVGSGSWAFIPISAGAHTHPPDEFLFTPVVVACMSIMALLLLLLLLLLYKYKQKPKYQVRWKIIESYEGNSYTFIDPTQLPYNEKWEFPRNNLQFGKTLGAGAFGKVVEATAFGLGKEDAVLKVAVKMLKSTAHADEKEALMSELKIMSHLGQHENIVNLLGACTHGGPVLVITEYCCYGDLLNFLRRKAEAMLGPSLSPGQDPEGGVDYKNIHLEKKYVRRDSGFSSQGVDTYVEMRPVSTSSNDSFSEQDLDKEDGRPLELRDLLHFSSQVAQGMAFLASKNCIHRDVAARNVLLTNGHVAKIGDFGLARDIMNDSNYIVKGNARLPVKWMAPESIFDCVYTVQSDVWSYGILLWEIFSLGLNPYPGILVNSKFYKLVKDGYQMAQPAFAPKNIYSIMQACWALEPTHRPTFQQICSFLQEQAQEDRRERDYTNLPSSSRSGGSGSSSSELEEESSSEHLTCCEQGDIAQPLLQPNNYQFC

[16] = test system: Tyrosine-protein kinase ABL1 (Homo sapiens), P00519 [Q252H]; conditions: Compound concentration 1000.0 nM
[17] = test system: Receptor-type tyrosine-protein kinase FLT3 (Homo sapiens), P36888 [UNDEFINED MUTATION]; conditions: Compound concentration 1000.0 nM
[18] = target: Tyrosine-protein kinase receptor UFO (Homo sapiens) (UniProt P30530); conditions: Compound concentration 1000.0 nM
[19] = target: Serine/threonine-protein kinase NLK (Homo sapiens) (UniProt Q9UBE8); conditions: Compound concentration 1000.0 nM
[20] = target: Mitogen-activated protein kinase kinase kinase 10 (Homo sapiens) (UniProt Q02779); conditions: Compound concentration 1000.0 nM
Sequence of Mitogen-activated protein kinase kinase kinase 10 (Homo sapiens) (Q02779 whole entry, looked up): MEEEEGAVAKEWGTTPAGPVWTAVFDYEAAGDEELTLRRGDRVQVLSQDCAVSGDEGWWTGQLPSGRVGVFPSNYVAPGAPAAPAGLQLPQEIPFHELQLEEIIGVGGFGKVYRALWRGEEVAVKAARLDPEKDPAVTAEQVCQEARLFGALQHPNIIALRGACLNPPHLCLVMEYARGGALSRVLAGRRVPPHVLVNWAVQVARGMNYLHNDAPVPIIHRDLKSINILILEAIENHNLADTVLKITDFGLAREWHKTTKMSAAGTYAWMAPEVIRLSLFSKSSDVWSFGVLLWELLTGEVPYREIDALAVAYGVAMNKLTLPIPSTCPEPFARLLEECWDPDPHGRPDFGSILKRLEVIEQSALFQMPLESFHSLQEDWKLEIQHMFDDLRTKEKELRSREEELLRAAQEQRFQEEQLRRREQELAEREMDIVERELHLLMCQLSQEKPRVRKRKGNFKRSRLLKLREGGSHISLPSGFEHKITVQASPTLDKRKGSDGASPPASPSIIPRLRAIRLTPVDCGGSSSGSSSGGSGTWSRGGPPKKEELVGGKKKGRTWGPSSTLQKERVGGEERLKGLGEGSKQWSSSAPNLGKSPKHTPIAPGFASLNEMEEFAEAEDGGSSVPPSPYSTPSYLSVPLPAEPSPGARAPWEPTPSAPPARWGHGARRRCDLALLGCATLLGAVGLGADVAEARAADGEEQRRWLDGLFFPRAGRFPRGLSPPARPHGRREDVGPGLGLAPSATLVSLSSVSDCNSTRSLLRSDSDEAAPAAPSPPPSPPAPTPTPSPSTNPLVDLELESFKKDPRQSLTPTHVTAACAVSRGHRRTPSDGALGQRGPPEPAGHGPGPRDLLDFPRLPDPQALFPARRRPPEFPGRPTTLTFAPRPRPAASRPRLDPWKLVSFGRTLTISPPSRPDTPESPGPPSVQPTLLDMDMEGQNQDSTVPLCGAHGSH

[21] = target: Myosin-IIIb (Homo sapiens) (UniProt Q8WXR4); conditions: Compound concentration 1000.0 nM
[22] = target: Testis-specific serine/threonine-protein kinase 1 (Homo sapiens) (UniProt Q9BXA7); conditions: Compound concentration 1000.0 nM
Sequence of Testis-specific serine/threonine-protein kinase 1 (Homo sapiens) (Q9BXA7 whole entry): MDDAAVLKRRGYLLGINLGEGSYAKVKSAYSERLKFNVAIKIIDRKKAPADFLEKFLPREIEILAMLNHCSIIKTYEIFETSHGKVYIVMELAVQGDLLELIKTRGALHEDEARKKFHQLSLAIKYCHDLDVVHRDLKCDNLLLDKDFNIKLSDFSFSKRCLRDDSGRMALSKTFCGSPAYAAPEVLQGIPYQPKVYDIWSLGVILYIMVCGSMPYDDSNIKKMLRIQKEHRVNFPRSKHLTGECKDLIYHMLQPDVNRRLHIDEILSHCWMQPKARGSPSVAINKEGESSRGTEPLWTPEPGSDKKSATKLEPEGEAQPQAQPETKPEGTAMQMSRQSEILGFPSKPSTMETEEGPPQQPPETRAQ

[23] = target: Fibroblast growth factor receptor 4 (Homo sapiens) (UniProt P22455); conditions: Compound concentration 1000.0 nM
[24] = target: Serine/threonine-protein kinase Nek9 (Homo sapiens) (UniProt Q8TD19); conditions: Compound concentration 1000.0 nM
[25] = target: Death-associated protein kinase 3 (Homo sapiens) (UniProt O43293); conditions: Compound concentration 1000.0 nM
[26] = target: STE20-like serine/threonine-protein kinase (Homo sapiens) (UniProt Q9H2G2); conditions: Compound concentration 1000.0 nM
[27] = target: Serine/threonine-protein kinase 33 (Homo sapiens) (UniProt Q9BYT3); conditions: Compound concentration 1000.0 nM
[28] = target: Cyclin-dependent kinase 8 (Homo sapiens) (UniProt P49336); conditions: Compound concentration 1000.0 nM
[29] = test system: Phosphatidylinositol 4,5-bisphosphate 3-kinase catalytic subunit alpha isoform (Homo sapiens), P42336 [H1047Y]; conditions: Compound concentration 1000.0 nM
[30] = target: Casein kinase I isoform gamma-1 (Homo sapiens) (UniProt Q9HCP0); conditions: Compound concentration 1000.0 nM
[31] = target: Serine/threonine-protein kinase LATS2 (Homo sapiens) (UniProt Q9NRM7); conditions: Compound concentration 1000.0 nM
[32] = target: 1-phosphatidylinositol 3-phosphate 5-kinase (Homo sapiens) (UniProt Q9Y2I7); conditions: Compound concentration 1000.0 nM
[33] = target: Dual specificity mitogen-activated protein kinase kinase 7 (Homo sapiens) (UniProt O14733); conditions: Compound concentration 1000.0 nM
[34] = target: Mitogen-activated protein kinase kinase kinase kinase 2 (Homo sapiens) (UniProt Q12851); conditions: Compound concentration 1000.0 nM
[35] = target: Cyclin-dependent kinase 2 homolog (Plasmodium falciparum (isolate 3D7)) (UniProt P61075); conditions: Compound concentration 1000.0 nM
Sequence of Cyclin-dependent kinase 2 homolog (Plasmodium falciparum (isolate 3D7)) (P61075 whole entry): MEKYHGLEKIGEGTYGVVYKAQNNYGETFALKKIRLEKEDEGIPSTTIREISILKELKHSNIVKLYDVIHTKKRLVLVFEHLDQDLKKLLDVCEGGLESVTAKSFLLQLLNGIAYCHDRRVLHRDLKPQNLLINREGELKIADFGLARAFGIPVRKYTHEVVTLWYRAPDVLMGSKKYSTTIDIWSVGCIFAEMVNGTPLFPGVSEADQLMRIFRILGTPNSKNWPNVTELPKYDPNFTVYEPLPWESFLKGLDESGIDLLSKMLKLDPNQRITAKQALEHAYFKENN

[36] = target: Mitogen-activated protein kinase 3 (Homo sapiens) (UniProt P27361); conditions: Compound concentration 1000.0 nM
Sequence of Mitogen-activated protein kinase 3 (Homo sapiens) (P27361 whole entry): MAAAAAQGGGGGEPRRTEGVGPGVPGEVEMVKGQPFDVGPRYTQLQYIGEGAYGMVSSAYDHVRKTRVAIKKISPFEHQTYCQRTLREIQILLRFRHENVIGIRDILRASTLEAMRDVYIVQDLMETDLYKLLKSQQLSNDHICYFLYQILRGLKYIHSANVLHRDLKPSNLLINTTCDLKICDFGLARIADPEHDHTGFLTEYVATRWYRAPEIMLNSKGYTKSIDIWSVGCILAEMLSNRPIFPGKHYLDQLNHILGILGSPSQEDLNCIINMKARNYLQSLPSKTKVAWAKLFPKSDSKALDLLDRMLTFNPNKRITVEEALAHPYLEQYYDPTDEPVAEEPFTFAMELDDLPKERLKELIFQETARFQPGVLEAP

[37] = target: Serine/threonine-protein kinase LATS1 (Homo sapiens) (UniProt O95835); conditions: Compound concentration 1000.0 nM
Sequence of Serine/threonine-protein kinase LATS1 (Homo sapiens) (O95835 whole entry): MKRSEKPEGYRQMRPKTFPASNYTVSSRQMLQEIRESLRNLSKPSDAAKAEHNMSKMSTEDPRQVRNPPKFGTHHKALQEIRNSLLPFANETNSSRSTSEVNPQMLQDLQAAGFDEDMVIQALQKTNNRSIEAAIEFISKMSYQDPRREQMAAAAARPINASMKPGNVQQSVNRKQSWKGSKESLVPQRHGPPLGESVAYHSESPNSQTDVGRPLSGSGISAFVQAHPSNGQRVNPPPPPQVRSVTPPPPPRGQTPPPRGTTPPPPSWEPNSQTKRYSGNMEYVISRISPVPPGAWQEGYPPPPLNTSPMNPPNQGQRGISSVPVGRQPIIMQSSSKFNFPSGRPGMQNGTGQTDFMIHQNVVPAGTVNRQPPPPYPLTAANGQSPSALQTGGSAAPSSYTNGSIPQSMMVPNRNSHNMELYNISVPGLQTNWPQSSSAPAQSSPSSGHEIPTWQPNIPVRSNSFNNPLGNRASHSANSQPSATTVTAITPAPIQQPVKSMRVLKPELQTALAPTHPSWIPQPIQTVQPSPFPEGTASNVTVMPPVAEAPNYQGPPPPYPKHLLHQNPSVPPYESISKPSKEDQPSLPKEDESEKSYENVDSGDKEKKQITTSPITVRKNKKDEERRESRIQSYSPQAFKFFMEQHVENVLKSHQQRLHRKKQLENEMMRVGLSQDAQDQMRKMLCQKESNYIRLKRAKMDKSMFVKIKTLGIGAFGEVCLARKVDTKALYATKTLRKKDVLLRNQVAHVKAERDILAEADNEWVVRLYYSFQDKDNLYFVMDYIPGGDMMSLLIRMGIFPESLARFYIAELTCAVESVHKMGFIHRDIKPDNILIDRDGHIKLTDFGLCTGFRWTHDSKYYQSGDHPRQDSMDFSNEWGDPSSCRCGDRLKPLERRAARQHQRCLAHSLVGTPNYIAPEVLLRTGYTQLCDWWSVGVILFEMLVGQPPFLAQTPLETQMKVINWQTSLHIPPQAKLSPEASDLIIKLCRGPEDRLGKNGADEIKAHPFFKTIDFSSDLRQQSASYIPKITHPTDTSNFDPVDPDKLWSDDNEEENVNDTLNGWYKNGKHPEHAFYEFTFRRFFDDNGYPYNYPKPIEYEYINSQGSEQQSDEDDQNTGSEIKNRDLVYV

[38] = target: Mast/stem cell growth factor receptor Kit (Homo sapiens) (UniProt P10721); conditions: Compound concentration 1000.0 nM
[39] = test system: Epidermal growth factor receptor (Homo sapiens), P00533 [G719S]; conditions: Compound concentration 1000.0 nM
[40] = target: cAMP-dependent protein kinase catalytic subunit PRKX (Homo sapiens) (UniProt P51817); conditions: Compound concentration 1000.0 nM
Sequence of cAMP-dependent protein kinase catalytic subunit PRKX (Homo sapiens) (P51817 whole entry): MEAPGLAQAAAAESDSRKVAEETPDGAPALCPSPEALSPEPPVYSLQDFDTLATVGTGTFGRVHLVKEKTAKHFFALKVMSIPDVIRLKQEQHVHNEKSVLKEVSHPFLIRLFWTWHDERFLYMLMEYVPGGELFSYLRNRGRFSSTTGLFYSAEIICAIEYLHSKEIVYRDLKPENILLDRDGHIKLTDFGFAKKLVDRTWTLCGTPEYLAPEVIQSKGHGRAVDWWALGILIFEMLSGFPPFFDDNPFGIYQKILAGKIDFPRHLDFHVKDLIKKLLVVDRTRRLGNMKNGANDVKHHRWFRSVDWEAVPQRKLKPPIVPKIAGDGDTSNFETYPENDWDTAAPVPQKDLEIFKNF

[41] = test system: Receptor-type tyrosine-protein kinase FLT3 (Homo sapiens), P36888 [N841I]; conditions: Compound concentration 1000.0 nM
[42] = target: Maternal embryonic leucine zipper kinase (Homo sapiens) (UniProt Q14680); conditions: Compound concentration 1000.0 nM
[43] = target: Ephrin type-A receptor 5 (Homo sapiens) (UniProt P54756); conditions: Compound concentration 1000.0 nM
[44] = target: D(3) dopamine receptor (Homo sapiens) (UniProt P35462); conditions: Compound concentration 10.0 uM
[45] = target: 5-hydroxytryptamine receptor 2A (Homo sapiens) (UniProt P28223); conditions: Compound concentration 10.0 uM

Sequence of SRSF protein kinase 3 (Homo sapiens) (Q9UPE1 whole entry): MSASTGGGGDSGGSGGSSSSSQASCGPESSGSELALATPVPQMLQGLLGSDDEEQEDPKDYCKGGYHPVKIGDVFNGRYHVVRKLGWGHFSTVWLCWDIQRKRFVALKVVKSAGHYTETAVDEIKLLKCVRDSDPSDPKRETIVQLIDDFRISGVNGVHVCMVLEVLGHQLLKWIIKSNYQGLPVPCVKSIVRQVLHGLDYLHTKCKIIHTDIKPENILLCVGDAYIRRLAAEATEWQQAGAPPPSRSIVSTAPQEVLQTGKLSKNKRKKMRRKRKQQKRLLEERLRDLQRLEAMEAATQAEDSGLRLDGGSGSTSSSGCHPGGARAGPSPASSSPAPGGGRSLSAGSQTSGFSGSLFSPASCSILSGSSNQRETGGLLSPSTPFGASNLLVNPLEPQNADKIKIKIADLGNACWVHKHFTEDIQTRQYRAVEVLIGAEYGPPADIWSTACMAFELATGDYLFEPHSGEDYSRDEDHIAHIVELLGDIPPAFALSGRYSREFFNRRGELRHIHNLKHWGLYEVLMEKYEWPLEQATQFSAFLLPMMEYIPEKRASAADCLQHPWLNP

COc1cc(-c2cn([C@H]3CCc4c(F)cccc4N(CC(F)(F)F)C3=O)nn2)ccc1-n1cnc(C)c1
inactive: residual activity [1] 100% | residual activity [2] 100% | residual activity [3] 78% | residual activity [4] 98% | residual activity [5] 76% | residual activity [6] 100% | residual activity [7] 100% | residual activity [8] 100% | residual activity [9] 100% | residual activity [10] 100% | residual activity [11] 100% | residual activity [12] 100% | residual activity [13] 92% | residual activity [14] 100% | residual activity [15] 86% | residual activity [16] 100% | residual activity [17] 82% | residual activity [18] 98% | residual activity [19] 100% | residual activity [20] 100% | residual activity [21] 100% | residual activity [22] 100% | residual activity [23] 100% | residual activity [24] 100% | residual activity [25] 100% | residual activity [26] 100% | residual activity [27] 100% | residual activity [28] 100% | residual activity [29] 100% | residual activity [30] 86% | residual activity [31] 100% | residual activity [32] 100% | residual activity [33] 100% | residual activity [34] 100% | residual activity [35] 100% | residual activity [36] 100% | residual activity [37] 93% | residual activity [38] 100% | residual activity [39] 90% | residual activity [40] 100% | residual activity [41] 99% | residual activity [42] 100% | residual activity [43] 100% | inhibition [44] 3.33% | inhibition [45] 11.5%

COc1cc(-c2cn([C@H]3CCc4ccccc4N(CC(F)(F)F)C3=O)nn2)ccc1-n1ccc(C)n1
inactive: residual activity [1] 100% | residual activity [2] 83% | residual activity [3] 57% | residual activity [4] 100% | residual activity [5] 66% | residual activity [6] 100% | residual activity [7] 100% | residual activity [8] 100% | residual activity [9] 100% | residual activity [10] 99% | residual activity [11] 100% | residual activity [12] 91% | residual activity [13] 100% | residual activity [14] 93% | residual activity [15] 92% | residual activity [16] 71% | residual activity [17] 80% | residual activity [18] 93% | residual activity [19] 100% | residual activity [20] 96% | residual activity [21] 100% | residual activity [22] 83% | residual activity [23] 100% | residual activity [24] 100% | residual activity [25] 100% | residual activity [26] 100% | residual activity [27] 100% | residual activity [28] 90% | residual activity [29] 100% | residual activity [30] 77% | residual activity [31] 69% | residual activity [32] 100% | residual activity [33] 100% | residual activity [34] 80% | residual activity [35] 100% | residual activity [36] 100% | residual activity [37] 71% | residual activity [38] 96% | residual activity [39] 100% | residual activity [40] 95% | residual activity [41] 100% | residual activity [42] 96% | residual activity [43] 100% | inhibition [44] 22% | inhibition [45] 5.83%
